This passage reports IC50 results from patent US9163021B2, “Pyrrolo[3,2-c]pyridine tropomyosin-related kinase inhibitors” (Pfizer Limited, priority 2012, dated 2015).

For this assay, the target named is TRKA (Homo sapiens (Human), UniProt P04629). As to the kind of experiment: Isolated TRK enzyme assay (HTRF KinEASE-TK), PV3144 TrkA enzyme assay. The assay is classed as biochemical. To be noted: arithmetic mean where more than one reading. Summed up: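 Kinase (recombinant His-TrkA cytoplasmic domain, ATP-preactivated 20 min) met compound 20 min, then biotinylated TK substrate (1 µM final) with Mg2+/DTT buffer; HTRF detection.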
Chain of TRKA (P04629 441-796): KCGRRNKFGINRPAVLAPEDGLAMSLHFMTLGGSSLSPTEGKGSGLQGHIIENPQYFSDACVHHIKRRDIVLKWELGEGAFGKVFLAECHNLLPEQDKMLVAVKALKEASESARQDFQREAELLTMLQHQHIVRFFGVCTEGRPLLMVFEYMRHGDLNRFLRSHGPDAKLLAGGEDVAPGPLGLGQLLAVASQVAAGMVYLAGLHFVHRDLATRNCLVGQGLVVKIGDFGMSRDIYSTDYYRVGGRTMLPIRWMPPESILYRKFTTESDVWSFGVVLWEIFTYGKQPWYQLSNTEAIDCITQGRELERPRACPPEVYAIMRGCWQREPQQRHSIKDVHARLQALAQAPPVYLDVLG
For orientation: In TR-FRET formats the signal depends on donor and acceptor labels being close together.

By IC50 is commonly meant the point on the concentration scale where inhibition reaches its midpoint. A higher IC50 goes with weaker potency in that assay. Take `CC(C)n1cc(C(=O)c2ccnc(NC(=O)Cc3nnn[nH]3)c2)c2cnccc21` [Example 187]: the IC50 was 9800 nM. For `CC(C)n1cc(C(=O)c2cncc(NC(=O)Cc3cccc(CC(C)(C)O)c3)c2)c2cnccc21` [Example 117, 2-(3-(2-hydroxy-2-methylpropyl)phenyl]-N-(5-{[1-(propan-2-yl)-1H-pyrrolo[3,2-c]pyridin-3-yl]carbonyl}pyridin-3-yl)acetamide], 39.2 nM corresponded to half-maximal inhibition (IC50). Compared with the last compound, the IC50 is about 250-fold lower. Next, `Cc1nc(CC(=O)Nc2cc(C(=O)c3cn(C(C)C)c4ccncc34)ccn2)c(C)o1` [Example 179, 2-(2,5-dimethyl-1,3-oxazol-4-yl)-N-(4-{[1-(propan-2-yl)-1H-pyrrolo[3,2-c]pyridin-3-yl]carbonyl}pyridin-2-yl)acetamide]: 163 nM. As to `CC(C)c1cn(CC(=O)Nc2cncc(C(=O)c3cn(C(C)CO)c4ccncc34)c2)nn1` (single isomer, unassigned) [Example 62, N-(5-{[1-(1-hydroxypropan-2-yl)-1H-pyrrolo[3,2-c]pyridin-3-yl]carbonyl}pyridin-3-yl)-2-[4-(propan-2-yl)-1H-1,2,3-triazol-1-yl]acetamide], inhibition was half-maximal at 54.3 nM (IC50).

For `CC(CO)n1cc(C(=O)c2cncc(NC(=O)Cn3ccc(C(F)(F)F)n3)c2)c2cncc(F)c21` (single isomer, unassigned) [Example 210, N-(5-{[7-fluoro-1-(1-hydroxypropan-2-yl)-1H-pyrrolo[3,2-c]pyridin-3-yl]carbonyl}pyridin-3-yl)-2-[3-(trifluoromethyl)-1H-pyrazol-1-yl]acetamide], half-maximal inhibition (IC50) was put at 45.6 nM. Turning to `COc1cccc(CC(=O)Nc2cc(C(=O)c3cn(C(C)C)c4ccncc34)ccn2)c1` [Example 108, 2-(3-methoxyphenyl)-N-(4-{[1-(propan-2-yl)-1H-pyrrolo[3,2-c]pyridin-3-yl]carbonyl}pyridin-2-yl)acetamide], half-maximal inhibition (IC50) was put at 640 nM. Take `Cc1cc(C(F)(F)F)nn1CC(=O)Nc1cncc(C(=O)c2cn(C(C)CO)c3c(F)cncc23)c1` (single isomer, unassigned) [Example 228, N-(5-{[7-fluoro-1-(1-hydroxypropan-2-yl)-1H-pyrrolo[3,2-c]pyridin-3-yl]carbonyl}pyridin-3-yl)-2-[5-methyl-3-(trifluoromethyl)-1H-pyrazol-1-yl]acetamide]: the midpoint of inhibition, the IC50, lay at 18.5 nM. In turn, `Cc1nc(CC(=O)Nc2cc(C(=O)c3cn(C(C)C)c4ccncc34)ccn2)c(C)s1` [Example 162, 2-(2,5-dimethyl-1,3-thiazol-4-yl)-N-(4-{[1-(propan-2-yl)-1H-pyrrolo[3,2-c]pyridin-3-yl]carbonyl}pyridin-2-yl)acetamide] showed a half-inhibitory concentration (IC50) of 56 nM. This IC50 lies about 3-fold higher than the previous one.

The compound `N#Cc1ccc(CC(=O)Nc2cc(C(=O)c3cn(C4COC4)c4ccncc34)ccn2)cc1C(F)(F)F` [Example 221, 2-[4-cyano-3-(trifluoromethyl)phenyl]-N-(4-{[1-(oxetan-3-yl)-1H-pyrrolo[3,2-c]pyridin-3-yl]carbonyl}pyridin-2-yl)acetamide] gave an IC50 of 138 nM. `N#Cc1ccc(CC(=O)Nc2cc(C(=O)c3cn(C4COC4)c4ccncc34)ccn2)cc1` [Example 195, 2-(4-cyanophenyl)-N-(4-{[1-(oxetan-3-yl)-1H-pyrrolo[3,2-c]pyridin-3-yl]carbonyl}pyridin-2-yl)acetamide]: the half-maximal inhibitory concentration (IC50) came to 203 nM. This IC50 and that of the compound before are within 1.5-fold of each other.

Compound `CC(C)n1cc(C(=O)c2ccnc(NC(=O)Cc3ccc(Cl)c(Cl)c3)c2)c2cnccc21` [Example 165, 2-(3,4-dichlorophenyl)-N-(4-{[1-(propan-2-yl)-1H-pyrrolo[3,2-c]pyridin-3-yl]carbonyl}pyridin-2-yl)acetamide] displayed an IC50 of 5.68 nM.

`Cc1nonc1CC(=O)Nc1cncc(C(=O)c2cn(C(C)C)c3ccncc23)c1` [Example 40, 2-(4-methyl-1,2,5-oxadiazol-3-yl)-N-(5-{[1-(propan-2-yl)-1H-pyrrolo[3,2-c]pyridin-3-yl]carbonyl}pyridin-3-yl)acetamide] had a half-maximal inhibitory concentration (IC50) of 1730 nM. This IC50 is about 300-fold higher than that of the compound before. In turn, `CC(C)n1cc(C(=O)c2ccnc(NC(=O)Cc3cccc(CC(C)(C)O)c3)c2)c2cnccc21` [Example 97, 2-[3-(2-hydroxy-2-methylpropyl)phenyl]-N-(4-{[1-(propan-2-yl)-1H-pyrrolo[3,2-c]pyridin-3-yl]carbonyl}pyridin-2-yl)acetamide] showed an IC50 of 31.1 nM. Against the preceding compound, the IC50 is about 56-fold lower. With `CC(C)c1cn(CC(=O)Nc2cncc(C(=O)c3cn(C(C)C)c4ccncc34)c2)nn1` [Example 123] the figure was 59.5 nM; with `COCc1nc(CC(=O)Nc2cc(C(=O)c3cn(C(C)C)c4ccncc34)ccn2)c(C2CC2)o1` [Example 80, 2-[5-cyclopropyl-2-(methoxymethyl)-1,3-oxazol-4-yl]-N-(4-{[1-(propan-2-yl)-1H-pyrrolo[3,2-c]pyridin-3-yl]carbonyl}pyridin-2-yl)acetamide], 357 nM; with `CC(C)n1cc(C(=O)c2ccnc(NC(=O)Cc3ccccc3Cl)c2)c2cnccc21` [Example 105, 2-(2-chlorophenyl)-N-(4-{[1-(propan-2-yl)-1H-pyrrolo[3,2-c]pyridin-3-yl]carbonyl}pyridin-2-yl)acetamide], 108 nM. With `O=C(Nc1cc(C(=O)c2cn(C3COC3)c3ccncc23)ccn1)c1cccc(OC(F)(F)F)c1` [Example 205, N-(4-{[1-(oxetan-3-yl)-1H-pyrrolo[3,2-c]pyridin-3-yl]carbonyl}pyridin-2-yl)-3-(trifluoromethoxy)benzamide], the IC50 worked out at 33 nM.

For `CC(C)n1cc(C(=O)c2cncc(NC(=O)Cc3ccccc3)c2)c2cnccc21` [Example 130, 2-phenyl-N-(5-{[1-(propan-2-yl)-1H-pyrrolo[3,2-c]pyridin-3-yl]carbonyl}pyridin-3-yl)acetamide], the 50% inhibitory concentration (IC50) was determined as 161 nM. With `CC(C)(CO)n1cc(C(=O)c2cc(NC(=O)Cc3cccc(C(F)(F)F)c3)ccn2)c2cnccc21` [Example 232, N-(2-{[1-(1-hydroxy-2-methylpropan-2-yl)-1H-pyrrolo[3,2-c]pyridin-3-yl]carbonyl}pyridin-4-yl)-2-[3-(trifluoromethyl)phenyl]acetamide] the figure was 11.3 nM; with `CC(C)n1ncc(CC(=O)Nc2cc(C(=O)c3cn(C4COC4)c4ccncc34)ccn2)c1C(F)(F)F` [Example 201], 314 nM. For the compound `CC(C)n1cc(C(=O)c2cncc(NC(=O)Cc3ccc(F)cc3)c2)c2cnccc21` [Example 115, 2-(4-fluorophenyl)-N-(5-{[1-(propan-2-yl)-1H-pyrrolo[3,2-c]pyridin-3-yl]carbonyl}pyridin-3-yl)acetamide], the 50% inhibitory concentration (IC50) was found to be 42 nM. The compound `CC(CO)n1cc(C(=O)c2cncc(NC(=O)Cc3ccc(C(F)(F)F)cc3)c2)c2cnccc21` (single isomer, unassigned) [Example 65, N-(5-{[1-(1-hydroxypropan-2-yl)-1H-pyrrolo[3,2-c]pyridin-3-yl]carbonyl}pyridin-3-yl)-2-[4-(trifluoromethyl)phenyl]acetamide] had a half-inhibitory concentration (IC50) of 37 nM. With `O=C(Cc1cccc(OC(F)(F)F)c1)Nc1cc(C(=O)c2cn(C3COC3)c3ccncc23)ccn1` [Example 194, N-(4-{[1-(oxetan-3-yl)-1H-pyrrolo[3,2-c]pyridin-3-yl]carbonyl}pyridin-2-yl)-2-[3-(trifluoromethoxy)phenyl]acetamide], the IC50 came to 13.8 nM. Consider `Cc1nc(C)c(CC(=O)Nc2cc(C(=O)c3cn(C(C)C)c4ccncc34)ccn2)s1` [Example 167, 2-(2,4-dimethyl-1,3-thiazol-5-yl)-N-(4-{[1-(propan-2-yl)-1H-pyrrolo[3,2-c]pyridin-3-yl]carbonyl}pyridin-2-yl)acetamide], for which the half-maximal inhibitory concentration (IC50) was 181 nM. Next, `CC(CO)n1cc(C(=O)c2cncc(NC(=O)Cc3cccc(C(F)(F)F)c3)c2)c2cnccc21` (single isomer, unassigned) [Example 36, N-(5-{[1-(1-hydroxypropan-2-yl)-1H-pyrrolo[3,2-c]pyridin-3-yl]carbonyl}pyridin-3-yl)-2-[3-(trifluoromethyl)phenyl]acetamide]: 44.7 nM. Turning to `CC(CO)n1cc(C(=O)c2cncc(NC(=O)Cn3ccc(C(F)(F)F)n3)c2)c2cncc(F)c21` (single isomer, unassigned) [Example 208, N-(5-{[7-fluoro-1-(1-hydroxypropan-2-yl)-1H-pyrrolo[3,2-c]pyridin-3-yl]carbonyl}pyridin-3-yl)-2-[3-(trifluoromethyl)-1H-pyrazol-1-yl]acetamide], half-maximal inhibition (IC50) required 29.7 nM. With `Cc1ccnn1CC(=O)Nc1cc(C(=O)c2cn(C(C)C)c3ccncc23)ccn1` [Example 169, 2-(5-methyl-1H-pyrazol-1-yl)-N-(4-{[1-(propan-2-yl)-1H-pyrrolo[3,2-c]pyridin-3-yl]carbonyl}pyridin-2-yl)acetamide] the figure was 83.6 nM. In turn, `CC(C)n1cc(C(=O)c2cncc(NC(=O)Cn3cc(C4CC4)nn3)c2)c2cncc(F)c21` [Example 89, 2-(4-cyclopropyl-1H-1,2,3-triazol-1-yl)-N-(5-{[7-fluoro-1-(propan-2-yl)-1H-pyrrolo[3,2-c]pyridin-3-yl]carbonyl}pyridin-3-yl)acetamide] registered a 50% inhibitory concentration (IC50) of 82.4 nM. The IC50 values of the last two compounds are within 1.5-fold of each other. Next, `CC(C)(CO)n1cc(C(=O)c2cc(NC(=O)Cc3ccc(C#N)cc3)ccn2)c2cnccc21` [Example 9, 2-(4-cyanophenyl)-N-(2-{[1-(1-hydroxy-2-methylpropan-2-yl)-1H-pyrrolo[3,2-c]pyridin-3-yl]carbonyl}pyridin-4-yl)acetamide]: 97.8 nM; `Cc1nc(C)n(CC(=O)Nc2cncc(C(=O)c3cn(C(C)C)c4ccncc34)c2)n1` [Example 137, 2-(3,5-dimethyl-1H-1,2,4-triazol-1-yl)-N-(5-{[1-(propan-2-yl)-1H-pyrrolo[3,2-c]pyridin-3-yl]carbonyl}pyridin-3-yl)acetamide]: 9800 nM.

With `CC(C)n1cc(C(=O)c2ccnc(NC(=O)Cn3cc(C(C)(C)O)nn3)c2)c2cnccc21` [Example 188], 477 nM corresponded to half-maximal inhibition (IC50). For `CC(C)(CO)n1cc(C(=O)c2cncc(NC(=O)Cn3ccc(C4CC4)n3)c2)c2cncc(F)c21` [Example 2, 2-(3-Cyclopropyl-pyrazol-1-yl)-N-{5-[7-fluoro-1-(2-hydroxy-1,1-dimethyl-ethyl)-1H-pyrrolo[3,2-c]pyridine-3-carbonyl]-pyridin-3-yl}-acetamide], the concentration for half-maximal inhibition (IC50) was found to be 5.58 nM.
